According to ChEMBL document CHEMBL1147043, “Comparative metabolism of radiolabeled muraglitazar in animals and humans by quantitative and qualitative metabolite profiling” (Drug Metab Dispos, 2007):

Legend:
[1] = test system: Plasma; assay: Biodistribution in orally dosed human plasma assessed as O-demethyl muraglitazar level after 12 hrs by LC/MS analysis; format: ADME, organism-based; settings: in vivo, po
[2] = Drug concentration in bile duct-cannulated CD1 mouse bile assessed as recovery of radioactive dose at 1 mg/kg, po after 24 hrs; format: ADME, organism-based; design: dose 1 mg/kg, route oral; settings: in vivo
[3] = test system: Plasma; assay: Biodistribution in orally dosed cynomolgus monkey plasma assessed as 17-dihydroxy muraglitazar level after 4 hrs by LC/MS analysis; format: ADME, organism-based, Macaca fascicularis; settings: in vivo, po
[4] = Biodistribution in orally dosed cynomolgus monkey urine assessed as 9-hydroxy muraglitazar level by LC/MS analysis; format: ADME, organism-based, Macaca fascicularis; settings: in vivo, po
[5] = test system: Hepatocyte; assay: Metabolic stability in human hepatocytes assessed as 12-hydroxy-O-demethyl muraglitazar level by LC/MS analysis relative to control; format: ADME, cell-based
[6] = Drug concentration in bile duct-cannulated CD1 mouse bile assessed as recovery of radioactive dose at 40 mg/kg, po after 24 hrs; format: ADME, organism-based; design: dose 40 mg/kg, route oral; settings: in vivo
[7] = Biodistribution in orally dosed cynomolgus monkey urine assessed as 9-hydroxy-O-demethyl muraglitazar level by LC/MS analysis; format: ADME, organism-based, Macaca fascicularis; settings: in vivo, po
[8] = Drug concentration in bile duct-cannulated CD1 mouse feces assessed as recovery of radioactive dose at 40 mg/kg, po after 24 hrs; format: ADME, organism-based; design: dose 40 mg/kg, route oral; settings: in vivo
[9] = Bile excretion of compound in bile duct-cannulated orally dosed cynomolgus monkey within 48 hrs; format: ADME, organism-based, Macaca fascicularis; settings: po, read-out: Activity
[10] = test system: Plasma; assay: Biodistribution in orally dosed Sprague-Dawley rat plasma assessed as O-demethyl muraglitazar glucuronide level after 12 hrs by LC/MS analysis; format: ADME, organism-based; settings: in vivo, po
[11] = test system: Plasma; assay: Biodistribution in orally dosed Sprague-Dawley rat plasma assessed as O-demethyl muraglitazar level after 1 hr by LC/MS analysis; format: ADME, organism-based; settings: in vivo, po
[12] = Metabolic stability in CD1 mouse hepatocytes assessed as O-Dealkyl muraglitazar level by LC/MS analysis relative to control; format: ADME, cell-based, Hepatocyte
[13] = Metabolic stability in CD1 mouse hepatocytes assessed as 12-hydroxy muraglitazar level by LC/MS analysis relative to control; format: ADME, cell-based, Hepatocyte
[14] = Fecal excretion of compound in orally dosed human within 96 hrs; format: ADME, organism-based; settings: faeces, po, read-out: Activity
[15] = test system: Hepatocyte; assay: Metabolic stability in human hepatocytes assessed as muraglitazar 12-carboxylic acid level by LC/MS analysis relative to control; format: ADME, cell-based
[16] = Biodistribution in orally dosed cynomolgus monkey urine assessed as 8-hydroxy muraglitazar level by LC/MS analysis; format: ADME, organism-based, Macaca fascicularis; settings: in vivo, po
[17] = Half life in Sprague-Dawley rat at 10 mg/kg, po after 24 hrs; format: ADME, organism-based; design: dose 10 mg/kg, route oral; settings: in vivo
[18] = Drug concentration in bile duct-cannulated CD1 mouse bile at 1 mg/kg, po after 24 hrs; format: ADME, organism-based; design: dose 1 mg/kg, route oral; settings: in vivo
[19] = Biodistribution in orally dosed human feces assessed as 17-hydroxy-O-demethyl muraglitazar level by LC/MS analysis; format: ADME, organism-based; settings: in vivo, po
[20] = Biodistribution in orally dosed Beagle dog feces assessed as 9,12-dihydroxy muraglitazar level by LC/MS analysis; format: ADME, organism-based, Canis lupus familiaris; settings: in vivo, po
[21] = Drug concentration in bile duct-cannulated Sprague-Dawley rat urine assessed as recovery of radioactive dose at 11 mg/kg, po after 24 hrs; format: ADME, organism-based; design: dose 11 mg/kg, route oral; settings: in vivo
[22] = test system: Plasma; assay: Biodistribution in orally dosed human plasma assessed as 12-hydroxy-O-demethyl muraglitazar level after 4 hrs by LC/MS analysis; format: ADME, organism-based; settings: in vivo, po
[23] = test system: Hepatocyte; assay: Metabolic stability in human hepatocytes assessed as O-dealkyl-O-demethyl muraglitazar level by LC/MS analysis relative to control; format: ADME, cell-based
[24] = Biodistribution in orally dosed human urine assessed as 17-hydroxy muraglitazar level by LC/MS analysis; format: ADME, organism-based; settings: in vivo, po
[25] = Drug concentration in Sprague-Dawley rat urine assessed as recovery of radioactive dose at 11 mg/kg, po after 168 hrs; format: ADME, organism-based; design: dose 11 mg/kg, route oral; settings: in vivo
[26] = Metabolic stability in cynomolgus monkey hepatocytes assessed as 9-hydroxy muraglitazar level by LC/MS analysis relative to control; format: ADME, cell-based, Macaca fascicularis, Hepatocyte
[27] = test system: Rattus norvegicus; assay: Biodistribution in orally dosed Sprague-Dawley rat urine assessed as muraglitazar 12-carboxylic acid level by LC/MS analysis; format: ADME, organism-based; settings: in vivo, po
[28] = test system: Plasma; assay: Biodistribution in orally dosed human plasma assessed as O-Dealkyl muraglitazar level after 4 hrs by LC/MS analysis; format: ADME, organism-based; settings: in vivo, po
[29] = Drug concentration in human bile assessed as recovery of radioactive dose at 20 mg, po after 3 to 8 hrs; format: ADME, organism-based; settings: in vivo
[30] = Metabolic stability in CD1 mouse hepatocytes assessed as 9-hydroxy-O-demethyl muraglitazar level by LC/MS analysis relative to control; format: ADME, cell-based, Hepatocyte
[31] = test system: Hepatocyte; assay: Metabolic stability in Sprague-Dawley rat hepatocytes assessed as 17-hydroxy-O-demethyl muraglitazar level by LC/MS analysis relative to control; format: ADME, cell-based
[32] = test system: Rattus norvegicus; assay: Biodistribution in orally dosed Sprague-Dawley rat urine assessed as 12-hydroxy-O-demethyl muraglitazar level by LC/MS analysis; format: ADME, organism-based; settings: in vivo, po
[33] = Biodistribution in orally dosed Beagle dog urine assessed as O-dealkyl-O-demethyl muraglitazar level by LC/MS analysis; format: ADME, organism-based, Canis lupus familiaris; settings: in vivo, po
[34] = Metabolic stability in CD1 mouse hepatocytes assessed as 8-hydroxy-O-demethyl muraglitazar level by LC/MS analysis relative to control; format: ADME, cell-based, Hepatocyte
[35] = Metabolic stability in CD1 mouse hepatocytes assessed as hydroxyl muraglitazar glucuronide level by LC/MS analysis relative to control; format: ADME, cell-based, Hepatocyte
[36] = test system: Hepatocyte; assay: Metabolic stability in Sprague-Dawley rat hepatocytes assessed as 9-hydroxy-O-demethyl muraglitazar level by LC/MS analysis relative to control; format: ADME, cell-based
[37] = Drug concentration in bile duct-cannulated Sprague-Dawley rat feces assessed as recovery of radioactive dose at 11 mg/kg, po after 24 hrs; format: ADME, organism-based; design: dose 11 mg/kg, route oral; settings: in vivo
[38] = Biodistribution in orally dosed Beagle dog feces assessed as muraglitazar 12-carboxylic acid level by LC/MS analysis; format: ADME, organism-based, Canis lupus familiaris; settings: in vivo, po
[39] = test system: Hepatocyte; assay: Metabolic stability in Sprague-Dawley rat hepatocytes assessed as muraglitazar 12-carboxylic acid level by LC/MS analysis relative to control; format: ADME, cell-based
[40] = Biodistribution in orally dosed cynomolgus monkey urine assessed as O-dealkyl muraglitazar level by LC/MS analysis; format: ADME, organism-based, Macaca fascicularis; settings: in vivo, po
[41] = test system: Plasma; assay: Biodistribution in orally dosed Beagle dog plasma assessed as O-Dealkyl muraglitazar level after 4 hrs by LC/MS analysis; format: ADME, organism-based, Canis lupus familiaris; settings: in vivo, po
[42] = Biodistribution in orally dosed cynomolgus monkey urine assessed as muraglitazar glucuronide level by LC/MS analysis; format: ADME, organism-based, Macaca fascicularis; settings: in vivo, po
[43] = Biodistribution in orally dosed cynomolgus monkey urine assessed as O-demethyl muraglitazar glucuronide level by LC/MS analysis; format: ADME, organism-based, Macaca fascicularis; settings: in vivo, po
[44] = test system: Plasma; assay: Biodistribution in orally dosed Beagle dog plasma assessed as O-demethyl muraglitazar glucuronide level after 4 hrs by LC/MS analysis; format: ADME, organism-based, Canis lupus familiaris; settings: in vivo, po
[45] = Biodistribution in orally dosed human feces assessed as 8-hydroxy-O-demethyl muraglitazar level by LC/MS analysis; format: ADME, organism-based; settings: in vivo, po
[46] = Fecal excretion of compound in bile duct-cannulated orally dosed cynomolgus monkey within 48 hrs; format: ADME, organism-based, Macaca fascicularis; settings: faeces, po, read-out: Activity
[47] = Metabolic stability in cynomolgus monkey hepatocytes assessed as 8-hydroxy muraglitazar level by LC/MS analysis relative to control; format: ADME, cell-based, Macaca fascicularis, Hepatocyte
[48] = test system: Hepatocyte; assay: Metabolic stability in Sprague-Dawley rat hepatocytes assessed as 12-hydroxy-O-demethyl muraglitazar level by LC/MS analysis relative to control; format: ADME, cell-based
[49] = test system: Plasma; assay: Biodistribution in orally dosed human plasma assessed as 17-dihydroxy muraglitazar level after 4 hrs by LC/MS analysis; format: ADME, organism-based; settings: in vivo, po
[50] = test system: Hepatocyte; assay: Metabolic stability in human hepatocytes assessed as di-oxygenated muraglitazar level by LC/MS analysis relative to control; format: ADME, cell-based
[51] = Biodistribution in orally dosed human feces assessed as 12-hydroxy-O-demethyl muraglitazar level by LC/MS analysis; format: ADME, organism-based; settings: in vivo, po
[52] = Drug concentration in human feces assessed as recovery of radioactive dose at 20 mg, po after 240 hrs; format: ADME, organism-based; settings: in vivo

COc1ccc(OC(=O)N(CC(=O)O)Cc2ccc(OCCc3nc(-c4ccccc4)oc3C)cc2)cc1 [MURAGLITAZAR]
Drug uptake [1]: 0.4%
Drug uptake [2]: 75%
Drug uptake [3]: 16.2%
Drug uptake [4]: 0.03%
Drug uptake [5]: < 0.2%
Drug uptake [6]: 66%
Drug uptake [7]: 0.18%
Drug uptake [8]: 12%
dose excreted at 48 h [9]: 36%
Drug uptake [10]: 0.4%
Drug uptake [11]: 2.3%
Drug uptake [12]: 23.6%
Drug uptake [13]: 11%
dose excreted at 96 h [14]: 80%
Drug uptake [15]: 0.9%
Drug uptake [16]: 0.12%
half-life [17]: 3.8 h
Drug uptake [18]: 0.375 mgequiv/ml
Drug uptake [19]: 1.48%
Drug uptake [20]: 0.34%
Drug uptake [21]: 0.98%
Drug uptake [22]: 0.3%
Drug uptake [23]: < 0.2%
Drug uptake [24]: 0.07%
Drug uptake [25]: 1%
Drug uptake [26]: 0.6%
Drug uptake [27]: < 0.01%
Drug uptake [28]: < 0.05%
Drug uptake [29]: 39.9%
Drug uptake [30]: 1.2%
Drug uptake [31]: < 0.2%
Drug uptake [32]: 0.01%
Drug uptake [33]: 0.01%
Drug uptake [34]: 4.8%
Drug uptake [35]: 2.7%
Drug uptake [36]: < 0.2%
Drug uptake [37]: 0.55%
Drug uptake [38]: 0.1%
Drug uptake [39]: < 0.2%
Drug uptake [40]: 1.04%
Drug uptake [41]: 3%
Drug uptake [42]: 0.02%
Drug uptake [43]: < 0.01%
Drug uptake [44]: 3%
Drug uptake [45]: 0.56%
dose excreted at 48 h [46]: 15%
Drug uptake [47]: < 0.2%
Drug uptake [48]: < 0.2%
Drug uptake [49]: 0.3%
Drug uptake [50]: 4.5%
Drug uptake [51]: 11.45%
Drug uptake [52]: 50.7%
